# In patent EP0108854A1, “Drug for stimulating hepatic cell homeostasis and for restoring the functional capacity of the hepatocytes” (ARCONTHORN LIMITED, priority 1982, dated 1984):
# What was measured:
# rats fed with Nath diet [1] = experiment: Nath diet experiments in the same manner, comparison with other drugs at present in use (25th, 35th, 45th day); format: in vivo; conditions: for increase in cholesteraemia: aminoethanethiosulphonic acid 100 mg/kg, phosphorylcholine dose not stated; for increase in triglyceridemia: Nath diet alone 100%
# Method: Experiments were carried out in the same manner as explained above with other drugs at present in use and, more particularly, phosphorylcholine (2 doses/25 and 50 mg/kg), sillimarine (Legalon, 70 mg/kg), S-adenosyl-1-methionine (Samyr) 25 mg/kg.
# In rats fed solely with the Nath diet, the increase is, however, 100%. Among the control drugs, only phosphorylcholine (50 mg/kg) achieves a slight reduction (-20%) relative to the increase observed at the end of the period with the atherogenic diet. • - as regards the cholesteraemia the protective action shown by the drug of the invention was significant. Indeed, in rats fed with the drug phosphorylcholine,a 300% increase was found after 25 days and 320% and 410% increases respectively were found on the 35th and 45th days of feeding while in rats fed with aminoethanethiosulphonic acid (100mg/kq) the increase in cholesteraemia was only 35% on the 25th and on the 35th days. On the 45th day the increase was 50%.
# [2] = test system: liver damage in rats induced by allyl alcohol; experiment: Activity against liver damage in rats induced by allyl alcohol; format: in vivo
# Method: Experiments were carried out on the activity of the drug of this invention on liver damage in rats induced by allyl alcohol. This damage was evaluated by means of the weight of the liver, the quantity of lipids in the tissue itself and tHe excretion of BSP in the bile, as well as the changes in the GOT, GPT and the alkaline phosphatase levels in the blood.
# The respective administrations to the rats were carried out intraperitoneally for 4 days. From the data in Table III it is seen that the weight of the rats'livers increased from […] in rats poisoned with allyl alcohol while the increase was only up to 5.30 mg in rats fed intraperitoneally with allyl alcohol and aminoethanethiosulphonic acid (drug of the invention). When allyl alcohol and the drug known by the name Thiola (100mg/^kg/day) was administered to the rats the liver weight increased to about 5.85 mg.
# rats fed with Nath diet [3] = experiment: Antidyslipaemic effect in rats fed with Nath diet for 45 days (evaluations on 28th and 45th day); format: in vivo, female Wistar rats; conditions: for blood triglyceride level: 28th day of treatment, aminoethanethiosulphonic acid dose printed as 10 mg/kg/day, tiadenol 100 mg/kg/day (Group C); for increase in pyruvic transaminase (GPT) level compared with the controls: Nath diet alone 60%; for increase in glutamic oxaloacetic transaminase (GOT) level compared with the controls: Nath diet alone 109%
# Method: The aminoethanethiosulphonic acid, which constitutes the drug of this invention was tested experimentally on female Wistar rats to establish its antidyslipaemic effect in comparison with drugs already in use therapeutically. For this experiment, the rats were divided into five groups of five rats which were fed in accordance with the following scheme: • GROUP "A": rats fed with a normal diet of nutritive pellets having the following composition: Composition of the nutritive pellets: [formula] with the addition of vitamins (A-D3-E-C), NaCl, CaCO3 and spring water at will. • GROUP "B": rats fed with Nath diet (Nath et al. 1959 - Journal of Nutrition, 67-289). • GROUP "C": rats fed with a Nath diet incorporating the drug tiadenol (1.25 q/kg)such that the rats could take up the drug in quantities of 100 mg/kg/day. • GROUP D: rats fed with a Nath diet incorporating the drug of the invention (1.25 g/kg of aminoethanethiosulphonic acid) such that the rats could take up the drug in quantities of 100 mg/kg/day. • GROUP"E":rats fed with a Nath diet incorporating the drug of the invention (aminoethanethiosulphonic acid) in quantities of 2.5 g/kg, so that the rats could take up the drug in quantities of 200 mg/kg/day.
# The experiments were carried out over a period of 45 days. On the 28th day of treatment, the cholesteraemia and the blood triglyceride level of the rats were measured.
# On the 45th day from the start of the treatment, however a whole series of systematic weight and hematochemical evaluations was carried out in accordance with the following scheme: • - liver weight/body weight percentage ratio • - ratio of the weight of the liver when removed/dry weight of the liver • - cholesteraemia according to the Watson method (1) • - blood triglyceride level according to the Bermryer method (2) • - blood alkaline phosphatase level (3,4) • - glutamic oxaloacetic transaminase level according to the Karmen method (5,6) • - glutamic pyruvic transaminase level according to the Wroblewski and La-Due method (7) • - total lipid content of the liver by extraction with ether, separation by decantation, evaporation of the ether part in an oven and weighing of the residue. • 1. - WATSON D. (1960) Clin. Chim. Acta, 5 : 637 • 2. - BERGMRYER H.U. (1975) Z. Klin. Chem. and Klin. Biochem.13 : 507 • 3; - Anon. (1970) Z.Klin. Chem. and Klin.Biochem 13 : 507. • 4. - Anon.(1972) Z.Klin. Chem. and Klin. Biochem 13 : 507. • 5. - KARMEN A. and coll. (1955) J. Clin. Invest. 34 : 126. • 6. - KARMEN A. (1955) J. Clin Invest. 34 : 131 • 7. - WROBLEWSKI F. and coll. (1956) Proc. Soc. exp. Biol. Med. 91 : 569.
# Macroscopic and microscopic, anatomical-pathological examinations of the liver and of the thoracic aorta were carried out on all the animals, the microscopic examinations being carried out by means of preservation in formalin,enclosure and colouration with hematoxylin- eosin and selective dyes for the lipids according to the current methods.
# Solubility in water = format: physicochemical
# [4] = Stability in the solid state; format: physicochemical; conditions: even at 50°C for very long periods of time
# rats fed with Nath diet [5] = experiment: Antidyslipaemic effect in rats fed with Nath diet for 45 days (evaluations on 28th and 45th day); format: in vivo, female Wistar rats; conditions: 28th day of treatment, tiadenol 100 mg/kg/day (Group C)
# [6] = test system: WISTAR RATS ON A HANDLER DIET; experiment: Protection in Wistar rats on a Handler diet for 45 days; format: in vivo; conditions: Handler diet 45 days; (XX) 100 mg/kg, phosphorylcholine 50 mg/kg
# Method: (§1) Table IV below gives data relative to the protection offered by the administration of aminoethanethiosulphonic acid (100 mg/kg/day) and a control drug (phosphoryl- , choline, 50 mg/kg/day) to groups of Wistar rats subjected to two different atherogenic diets, specifically the Morris diet and the Handler diet, for 45 days. The data, in general, substantially repeated those observed in experiments carried out on aminals subjected to the Nath diet.
# [7] = Toxicology, administration kept up for 180 days; format: in vivo; conditions: daily dose of 200 mg/kg of body weight
# [8] = test system: WISTAR RATS KEPT ON A MORRIS DIET; experiment: Protection in Wistar rats kept on a Morris diet for 45 days; format: in vivo; conditions: Morris diet 45 days; (XX) 100 mg/kg, phosphorylcholine 50 mg/kg
# Method: as §1
# [9] = 100 mg/kg/day i.p. for 4 days, allyl alcohol 2 ml/kg p.o. 30 minutes after last administration
# [10] = 100 mg/kg/day i.p. for 4 days, allyl alcohol 2 ml/kg p.o. 30 minutes after last administration, listed as (XX)
Structure (SMILES),"LIVER Weight [2, 9]","SERUM BSP [2, 9] [µg/mL]","SERUM GOT [2, 9] [mU/ml]","SERUM GPT [2, 9] [mU/ml]",blood triglyceride level (rats fed with Nath diet [3]) [mg%],"increase in pyruvic transaminase (GPT) level compared with the controls (rats fed with Nath diet [3]; 45th day, 100 mg/kg/day) [%]","increase in glutamic oxaloacetic transaminase (GOT) level compared with the controls (rats fed with Nath diet [3]; 45th day, 100 mg/kg/day) [%]",blood cholesterol level (rats fed with Nath diet [5]) [mg%],"CHOLESTERAEMIA, protection [6] [%]","HEPATIC LIPIDS, protection [6] [%]","TOTAL BLOOD LIPIDS, protection [6] [%]","TRIGLYCERIDEMIA, protection [6] [%]",increase in cholesteraemia (rats fed with Nath diet [1]; 25th day) [%],increase in cholesteraemia (rats fed with Nath diet [1]; 35th day) [%],increase in cholesteraemia (rats fed with Nath diet [1]; 45th day) [%],"BETALIPOPROTEINS, protection [8] [%]","CHOLESTERAEMIA, protection [8] [%]","HEPATIC LIPIDS, protection [8] [%]","TOTAL BLOOD LIPIDS, protection [8] [%]",further results
"C[S+](CC[C@H](N)C(=O)O)C[C@H]1O[C@@H](n2cnc3c(N)ncnc32)[C@H](O)[C@@H]1O (some centres unmarked) [Samyr, S-adenosyl-1-methionine, reference compound]",,,,,,,,,,,,,,,,,,,,"changes in the transaminase levels (GOT and GPT) (rats fed with Nath diet [1]; 35th day of administration): a certain favourable action; protective action as regards the cholesteraemia (rats fed with Nath diet [1]; Legalon 70 mg/kg, Samyr 25 mg/kg, noticeably less than aminoethanethiosulphonic acid): a certain protective action; protection from the point of view of lipid infiltration (rats fed with Nath diet [1]; control drugs compared with aminoethanethiosulphonic acid): protection was found but was only half that given by the aminoethanethiosulphonic acid"
CC(S)C(=O)NCC(=O)O (centres unmarked) [Thiola],about 5.85 mg,21.78 ± 2.99,388.0 ± 25.8,99.4 ± 12.2,,,,,,,,,,,,,,,,"LIVER Lipids Tot. [2, 9]: 5.23 ± 0.30 mg%; SERUM ALKALINE PHOSPHATASE [2, 9]: 3.13 ± 0.23 U/ml; protection against the increase in the total lipid content of the liver ([2]; after allyl alcohol, 100 mg/kg/day i.p.): did not give any protection"
NCCS(=O)(O)=S [aminoethanethiosulphonic acid],5.30,12.31 ± 0.91,172.0 ± 10.2,25.9 ± 2.5,31,90,23,129,35,50,33,30,35,35,50,45,60,50,40,"increase in the hepatic lipid infiltration compared with the control animals (rats fed with Nath diet [3]; 45th day, 100 mg/kg/day, Nath diet alone 235%): 117%; solubility in water (Solubility in water): soluble in water; stability in the solid state [4]: considerable stability in the solid state; LIVER Lipids Tot. [2, 10]: 5.08 ± 0.39 mg%; LIVER Weight [2, 10]: 5.30 ± 0.05; LIVER Lipids Tot. ([2]; 100 mg/kg/day i.p. for 4 days, allyl alcohol 2 ml/kg p.o. 30 minutes after last administration, listed as drug of the invention): 5.08 mg%; increase in the quantity of lipids in the tissue (hepatic parenchyma) (rats fed with Nath diet [1]; 25th day, 100 mg/kg, Nath diet alone + 155): 50%; increase in the quantity of lipids in the tissue (hepatic parenchyma) (rats fed with Nath diet [1]; 25th day, 200 mg/kg, Nath diet alone + 155): 95%; increase in triglyceridemia (rats fed with Nath diet [1]; 35th day, 100 mg/kg/day): 15%; increase in triglyceridemia (rats fed with Nath diet [1]; 35th day, 200 mg/kg/day): 40%; increase in the quantity of lipids in the tissue (hepatic parenchyma) (rats fed with Nath diet [1]; 45th day, 100 mg/kg, Nath diet alone + 225): 98%; increase in the quantity of lipids in the tissue (hepatic parenchyma) (rats fed with Nath diet [1]; 45th day, 200 mg/kg, Nath diet alone + 225): 110%; mortality [7]: did not result in any increase in mortality; weight curve [7]: nor any variation in the weight curve"
"C[N+](C)(C)CCOP(=O)(O)O [phosphorylcholine, reference compound]",,,,,,,,,15,23,10,7,300,320,410,8,12,12,5,reduction in triglyceridemia relative to the increase observed at the end of the period with the atherogenic diet (rats fed with Nath diet [1]; 50 mg/kg): -20%
"OCCSCCCCCCCCCCSCCO [tiadenol, reference compound]",,,,,44,100,32,155,,,,,,,,,,,,
